Legend:
Bile salt export pump [1] = molecular target: Bile salt export pump (Rattus norvegicus, UniProt O70127); experiment: Inhibition of Sprague-Dawley rat Bsep expressed in plasma membrane vesicles of Sf21 cells assessed as inhibition of ATP-dependent [3H]taurocholate uptake; assay type: cell membranes
Bile salt export pump [2] = molecular target: Bile salt export pump (Homo sapiens, UniProt O95342); experiment: Inhibition of human BSEP expressed in plasma membrane vesicles of Sf21 cells assessed as inhibition of ATP-dependent [3H]taurocholate uptake; assay type: cell membranes
Chain of Bile salt export pump (Homo sapiens, UniProt O95342) (O95342 whole entry): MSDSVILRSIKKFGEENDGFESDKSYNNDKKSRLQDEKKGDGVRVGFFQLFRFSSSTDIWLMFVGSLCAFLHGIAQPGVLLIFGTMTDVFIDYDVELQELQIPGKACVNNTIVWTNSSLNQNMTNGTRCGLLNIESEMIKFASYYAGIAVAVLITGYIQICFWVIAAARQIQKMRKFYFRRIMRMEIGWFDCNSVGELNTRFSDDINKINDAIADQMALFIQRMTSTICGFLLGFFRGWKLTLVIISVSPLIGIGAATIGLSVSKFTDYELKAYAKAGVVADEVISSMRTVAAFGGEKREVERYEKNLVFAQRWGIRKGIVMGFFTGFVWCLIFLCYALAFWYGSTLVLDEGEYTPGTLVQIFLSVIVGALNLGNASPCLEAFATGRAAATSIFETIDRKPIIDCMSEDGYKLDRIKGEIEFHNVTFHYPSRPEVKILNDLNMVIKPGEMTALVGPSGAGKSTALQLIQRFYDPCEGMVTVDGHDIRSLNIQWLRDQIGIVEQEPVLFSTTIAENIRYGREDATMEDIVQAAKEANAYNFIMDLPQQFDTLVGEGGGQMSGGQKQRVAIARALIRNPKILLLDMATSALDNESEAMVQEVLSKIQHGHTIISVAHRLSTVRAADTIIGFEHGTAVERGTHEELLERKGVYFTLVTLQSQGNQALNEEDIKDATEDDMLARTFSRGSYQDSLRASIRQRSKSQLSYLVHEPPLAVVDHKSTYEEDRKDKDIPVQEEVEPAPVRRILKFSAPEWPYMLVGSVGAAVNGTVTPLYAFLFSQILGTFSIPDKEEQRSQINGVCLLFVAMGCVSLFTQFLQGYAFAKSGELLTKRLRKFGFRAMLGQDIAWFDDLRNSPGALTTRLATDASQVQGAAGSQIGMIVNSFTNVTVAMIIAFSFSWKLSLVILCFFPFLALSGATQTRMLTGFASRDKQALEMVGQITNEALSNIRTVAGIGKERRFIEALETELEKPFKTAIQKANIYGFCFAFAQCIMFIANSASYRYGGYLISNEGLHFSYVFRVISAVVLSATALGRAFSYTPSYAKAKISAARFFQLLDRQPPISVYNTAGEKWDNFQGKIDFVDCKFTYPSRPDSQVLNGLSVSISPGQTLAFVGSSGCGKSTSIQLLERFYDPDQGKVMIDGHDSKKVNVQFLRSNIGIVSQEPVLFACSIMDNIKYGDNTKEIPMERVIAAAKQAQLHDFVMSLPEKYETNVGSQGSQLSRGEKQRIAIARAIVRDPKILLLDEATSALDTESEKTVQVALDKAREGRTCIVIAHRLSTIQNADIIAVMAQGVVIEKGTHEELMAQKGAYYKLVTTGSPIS

Chain of Bile salt export pump (Rattus norvegicus, UniProt O70127) (O70127 whole entry): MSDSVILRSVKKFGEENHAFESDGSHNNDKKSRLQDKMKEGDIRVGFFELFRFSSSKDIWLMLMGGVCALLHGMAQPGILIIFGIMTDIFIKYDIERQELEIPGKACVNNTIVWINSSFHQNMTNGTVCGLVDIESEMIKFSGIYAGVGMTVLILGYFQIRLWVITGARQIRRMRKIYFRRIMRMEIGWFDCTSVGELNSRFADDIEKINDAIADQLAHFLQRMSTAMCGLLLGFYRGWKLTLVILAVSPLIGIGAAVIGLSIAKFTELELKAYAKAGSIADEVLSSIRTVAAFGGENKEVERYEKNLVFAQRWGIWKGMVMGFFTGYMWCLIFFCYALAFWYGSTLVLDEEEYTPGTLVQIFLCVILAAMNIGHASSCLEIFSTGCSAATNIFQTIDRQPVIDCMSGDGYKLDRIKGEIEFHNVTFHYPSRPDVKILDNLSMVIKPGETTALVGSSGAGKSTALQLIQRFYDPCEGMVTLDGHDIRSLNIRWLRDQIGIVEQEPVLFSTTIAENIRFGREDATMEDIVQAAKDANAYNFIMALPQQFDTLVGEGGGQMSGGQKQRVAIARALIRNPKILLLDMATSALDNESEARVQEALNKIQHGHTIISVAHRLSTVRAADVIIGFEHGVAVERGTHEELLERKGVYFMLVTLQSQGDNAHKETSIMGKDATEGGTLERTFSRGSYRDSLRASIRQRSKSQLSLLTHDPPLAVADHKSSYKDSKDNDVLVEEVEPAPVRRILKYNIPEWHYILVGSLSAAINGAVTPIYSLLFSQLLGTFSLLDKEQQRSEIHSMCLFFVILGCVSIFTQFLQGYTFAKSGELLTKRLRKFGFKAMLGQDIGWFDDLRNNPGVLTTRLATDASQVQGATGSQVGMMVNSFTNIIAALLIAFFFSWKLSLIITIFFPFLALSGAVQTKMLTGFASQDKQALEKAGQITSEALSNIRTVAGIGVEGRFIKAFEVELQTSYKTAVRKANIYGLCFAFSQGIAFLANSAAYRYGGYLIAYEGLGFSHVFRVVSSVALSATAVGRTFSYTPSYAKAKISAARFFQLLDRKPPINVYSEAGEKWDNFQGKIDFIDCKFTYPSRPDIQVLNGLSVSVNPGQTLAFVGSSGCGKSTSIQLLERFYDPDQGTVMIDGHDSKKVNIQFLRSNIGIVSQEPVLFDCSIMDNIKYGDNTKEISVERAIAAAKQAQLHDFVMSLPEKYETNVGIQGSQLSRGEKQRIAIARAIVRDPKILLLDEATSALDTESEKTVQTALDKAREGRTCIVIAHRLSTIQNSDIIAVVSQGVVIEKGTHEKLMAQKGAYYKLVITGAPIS

SMILES | IC50 (Bile salt export pump [1]) [µM] | IC50 (Bile salt export pump [2]) [µM]
CN(C)CCN(Cc1cccs1)c1ccccn1 | > 1000 | > 1000
CC1=C(CC(=O)O)c2cc(F)ccc2/C1=C\c1ccc([S+](C)[O-])cc1 (stereo not given) | 87.5 | 226
CC(=O)Nc1ccc(O)cc1 [ACETAMINOPHEN] | > 1000 | > 1000
COc1cc(C)c(/C=C/C(C)=C/C=C/C(C)=C/C(=O)O)c(C)c1C [ACITRETIN] | 19.7 | 18.2
Nc1nc2c(ncn2COCCO)c(=O)[nH]1 [ACYCLOVIR] | > 1000 | > 1000
CCCN(CCC)C(=O)Cc1c(-c2ccc(Cl)cc2)nc2ccc(Cl)cn12 [ALPIDEM] | 23 | 9.2
CC1(C)S[C@@H]2[C@H](NC(=O)[C@H](N)c3ccc(O)cc3)C(=O)N2[C@H]1C(=O)O [AMOXICILLIN] | > 1000 | > 1000
Cn1cnc([N+](=O)[O-])c1Sc1ncnc2nc[nH]c12 [AZATHIOPRINE] | > 1000 | –
CC(C(=O)O)c1ccc2oc(-c3ccc(Cl)cc3)nc2c1 (stereo not given) [BENOXAPROFEN] | 99.1 | 175
C[N+](C)(C)CC(=O)O [BETAINE] | > 1000 | > 1000
CC(C)(Oc1ccc(CCNC(=O)c2ccc(Cl)cc2)cc1)C(=O)O [BEZAFIBRATE] | 391 | 232
COc1ccccc1Oc1c(NS(=O)(=O)c2ccc(C(C)(C)C)cc2)nc(-c2ncccn2)nc1OCCO [BOSENTAN] | 30.6 | 38.1
O=C1CC2(CCCC2)CC(=O)N1CCCCN1CCN(c2ncccn2)CC1 [BUSPIRONE] | 370 | 105
NC(=O)N1c2ccccc2C=Cc2ccccc21 [CARBAMAZEPINE] | > 1000 | > 1000
O=NN(CCCl)C(=O)NCCCl [CARMUSTINE] | > 1000 | > 1000
CN(C)CCCN1c2ccccc2Sc2ccc(Cl)cc21 [CHLORPROMAZINE] | 122 | 148
CCCNC(=O)NS(=O)(=O)c1ccc(Cl)cc1 [CHLORPROPAMIDE] | > 1000 | > 1000
O=C(O)c1cc(-c2ccccc2)nc2ccccc12 [CINCHOPHEN] | 296 | 695

SMILES | IC50 (Bile salt export pump [1]) [µM] | IC50 (Bile salt export pump [2]) [µM]
CC(C)(Oc1ccc(C2CC2(Cl)Cl)cc1)C(=O)O (stereo not given) [CIPROFIBRATE] | 190 | 573
O=C(O)[C@H]1/C(=C/CO)O[C@@H]2CC(=O)N21 [CLAVULANIC ACID] | > 1000 | > 1000
CCC(=O)O[C@]1(C(=O)CCl)[C@@H](C)C[C@H]2[C@@H]3CCC4=CC(=O)C=C[C@]4(C)[C@@]3(F)[C@@H](O)C[C@@]21C [CLOBETASOL PROPIONATE] | 35 | 8.5
Cc1onc(-c2ccccc2Cl)c1C(=O)N[C@@H]1C(=O)N2[C@@H]1SC(C)(C)[C@@H]2C(=O)O [CLOXACILLIN] | 377 | 220
CN1CCN(C2=Nc3cc(Cl)ccc3Nc3ccccc32)CC1 [CLOZAPINE] | 197 | 126
O=C(O)c1cc(=O)c2c(OCC(O)COc3cccc4oc(C(=O)O)cc(=O)c34)cccc2o1 [CROMOLYN] | > 1000 | > 1000
N[C@@H]1CON=C1O [CYCLOSERINE] | > 1000 | > 1000
Nc1ccc(S(=O)(=O)c2ccc(N)cc2)cc1 [DAPSONE] | > 1000 | –
C[C@@H]1C[C@H]2[C@@H]3CCC4=CC(=O)C=C[C@]4(C)[C@@]3(F)[C@@H](O)C[C@]2(C)[C@@]1(O)C(=O)CO [DEXAMETHASONE] | 232 | 137
Cc1onc(-c2c(Cl)cccc2Cl)c1C(=O)N[C@@H]1C(=O)N2[C@@H]1SC(C)(C)[C@@H]2C(=O)O [DICLOXACILLIN] | 111 | 69.7
NNc1nnc(NN)c2ccccc12 [DIHYDRALAZINE] | > 1000 | > 1000
COc1cc2c(cc1OC)C(=O)C(CC1CCN(Cc3ccccc3)CC1)C2 (stereo not given) [DONEPEZIL] | 519 | 206
NCCc1ccc(O)c(O)c1 [DOPAMINE] | > 1000 | > 1000
CCC(=O)O[C@H]1[C@H](O[C@@H]2[C@@H](C)[C@H](O[C@H]3C[C@@](C)(OC)[C@@H](O)[C@H](C)O3)[C@@H](C)C(=O)O[C@H](CC)[C@@](C)(O)[C@H](O)[C@@H](C)C(=O)[C@H](C)C[C@@]2(C)O)O[C@H](C)C[C@@H]1N(C)C [ERYTHROMYCIN ESTOLATE] | 11.4 | 4.1
NC(N)=Nc1nc(CSCCC(N)=NS(N)(=O)=O)cs1 [FAMOTIDINE] | > 1000 | > 1000
NC(=O)OCC(COC(N)=O)c1ccccc1 [FELBAMATE] | > 1000 | > 1000
O=C(O)Cc1csc(-c2ccc(Cl)cc2)n1 [FENCLOZIC ACID] | > 1000 | > 1000
O=c1[nH]c(=O)n([C@@H]2O[C@H](CO)[C@@H](O)[C@@H]2F)cc1I [FIALURIDINE] | > 1000 | > 1000

Reference: ChEMBL document CHEMBL3526080, “In vitro inhibition of the bile salt export pump correlates with risk of cholestatic drug-induced liver injury in humans” (Drug Metab Dispos, 2012)
